Laboratory results: paper PMC5218480 (PLoS ONE, 2017)

Tested on: MV-4-11 cells
Experiment: Gene expression microarray analysis (Affymetrix PrimeView) and GSEA
Type: cell-based, human
Set-up: RFU PODN (11730768_x_at) / Fold change /veh PODN (11730768_x_at) / RFU LINC00158 (11744669_a_at) / Fold change /veh LINC00158 (11744669_a_at) / RFU DUSP10 (11751237_a_at) / Fold change /veh DUSP10 (11751237_a_at) / RFU ID3 (11757404_x_at) / Fold change /veh ID3 (11757404_x_at) / RFU PLEKHG5 (11737974_s_at) / Fold change /veh PLEKHG5 (11737974_s_at) / RFU LRRC4B (11730491_at) / Fold change /veh LRRC4B (11730491_at) / RFU GIMAP4 (11747438_a_at) / Fold change /veh GIMAP4 (11747438_a_at) / RFU KRT8 (11758183_x_at) / Fold change /veh KRT8 (11758183_x_at) / RFU CNN1 (11734310_a_at) / Fold change /veh CNN1 (11734310_a_at) / RFU VPS37D (11726825_at) / Fold change /veh VPS37D (11726825_at) / RFU C10orf10 (11716522_x_at) / Fold change /veh C10orf10 (11716522_x_at) / RFU KIR2DL2 /// KIR2DL4 /// KIR2DL5A /// KIR2DL5B /// KIR2DS1 /// KIR2DS2 /// KIR2DS3 /// KIR2DS4 /// KIR3DL3 /// KIR3DL3 /// KIR3DS1 (11738374_at) / Fold change /veh KIR2DL2 /// KIR2DL4 /// KIR2DL5A /// KIR2DL5B /// KIR2DS1 /// KIR2DS2 /// KIR2DS3 /// KIR2DS4 /// KIR3DL3 /// KIR3DL3 /// KIR3DS1 (11738374_at) / RFU C1QL1 (11718748_at) / Fold change /veh C1QL1 (11718748_at) / RFU TMPRSS4 (11747572_a_at) / Fold change /veh TMPRSS4 (11747572_a_at) / RFU HAMP (11756126_x_at) / Fold change /veh HAMP (11756126_x_at) / RFU RNFT2 (11725882_a_at) / Fold change /veh RNFT2 (11725882_a_at) / RFU NR4A2 (11747474_a_at) / Fold change /veh NR4A2 (11747474_a_at) / RFU ABCC12 (11746883_a_at) / Fold change /veh ABCC12 (11746883_a_at) / RFU TMEM136 (11760407_x_at) / Fold change /veh TMEM136 (11760407_x_at) / RFU CLDN22 /// WWC2 (11732394_at) / Fold change /veh CLDN22 /// WWC2 (11732394_at) / RFU HLA-DPB1 (11760878_x_at) / Fold change /veh HLA-DPB1 (11760878_x_at) / RFU SPINT1 (11716480_a_at) / Fold change /veh SPINT1 (11716480_a_at) / RFU GAP43 (11754022_s_at) / Fold change /veh GAP43 (11754022_s_at) / RFU A4GNT (11735810_at) / Fold change /veh A4GNT (11735810_at) / RFU PRB3 (11715151_x_at) / Fold change /veh PRB3 (11715151_x_at) / RFU TUBB4B (11761932_at) / Fold change /veh TUBB4B (11761932_at) / RFU CAPN14 (11732068_a_at) / Fold change /veh CAPN14 (11732068_a_at) / RFU TMCC2 (11721928_a_at) / Fold change /veh TMCC2 (11721928_a_at) / RFU IRGQ (11745062_a_at) / Fold change /veh IRGQ (11745062_a_at) / RFU FAM174B (11720279_a_at) / Fold change /veh FAM174B (11720279_a_at) / RFU TMPRSS4 (11748680_a_at) / Fold change /veh TMPRSS4 (11748680_a_at) / RFU FAM212B (11763350_a_at) / Fold change /veh FAM212B (11763350_a_at) / RFU PLEKHG5 (11743358_a_at) / Fold change /veh PLEKHG5 (11743358_a_at) / RFU ZSCAN30 (11745921_a_at) / Fold change /veh ZSCAN30 (11745921_a_at) / RFU CMKLR1 (11741424_a_at) / Fold change /veh CMKLR1 (11741424_a_at) / RFU LOC101060620 /// MAPK8IP1 (11723275_at) / Fold change /veh LOC101060620 /// MAPK8IP1 (11723275_at) / RFU SPTSSB (11747773_x_at) / Fold change /veh SPTSSB (11747773_x_at) / RFU PRSS12 (11739890_at) / Fold change /veh PRSS12 (11739890_at) / RFU BIN1 (11741810_x_at) / Fold change /veh BIN1 (11741810_x_at) / RFU WNT11 (11732464_a_at) / Fold change /veh WNT11 (11732464_a_at) / RFU C10orf10 (11716521_a_at) / Fold change /veh C10orf10 (11716521_a_at) / RFU C5orf56 (11738089_at) / Fold change /veh C5orf56 (11738089_at) / RFU CYB561 (11721691_x_at) / Fold change /veh CYB561 (11721691_x_at) / RFU ANKRD19P (11752326_a_at) / Fold change /veh ANKRD19P (11752326_a_at) / RFU OR2T12 /// OR2T33 /// OR2T8 (11738714_s_at) / Fold change /veh OR2T12 /// OR2T33 /// OR2T8 (11738714_s_at) / RFU VCAN (11748164_a_at) / Fold change /veh VCAN (11748164_a_at) / RFU JSRP1 (11732532_at) / Fold change /veh JSRP1 (11732532_at) / RFU KRTAP10-11 (11738290_x_at) / Fold change /veh KRTAP10-11 (11738290_x_at) / RFU MYO3A (11730013_a_at) / Fold change /veh MYO3A (11730013_a_at) / RFU EBF3 (11725865_a_at) / Fold change /veh EBF3 (11725865_a_at) / RFU CAMK2N1 (11719241_x_at) / Fold change /veh CAMK2N1 (11719241_x_at) / RFU C5orf56 (11738088_a_at) / Fold change /veh C5orf56 (11738088_a_at) / RFU OLFML3 (11715873_a_at) / Fold change /veh OLFML3 (11715873_a_at) / RFU LOC100653217 /// NTM (11731650_a_at) / Fold change /veh LOC100653217 /// NTM (11731650_a_at) / RFU MAPK11 (11762145_a_at) / Fold change /veh MAPK11 (11762145_a_at) / RFU FIZ1 (11724087_x_at) / Fold change /veh FIZ1 (11724087_x_at) / RFU OASL (11726364_x_at) / Fold change /veh OASL (11726364_x_at) / RFU SOX15 (11748057_x_at) / Fold change /veh SOX15 (11748057_x_at) / RFU CD79A (11719716_a_at) / Fold change /veh CD79A (11719716_a_at) / RFU HIST1H1D (11736915_at) / Fold change /veh HIST1H1D (11736915_at) / RFU CASKIN2 (11723855_a_at) / Fold change /veh CASKIN2 (11723855_a_at) / RFU LOC730098 (11760151_x_at) / Fold change /veh LOC730098 (11760151_x_at) / RFU OR4N2 (11742367_at) / Fold change /veh OR4N2 (11742367_at) / RFU PRRT2 (11749266_a_at) / Fold change /veh PRRT2 (11749266_a_at) / RFU SNX32 (11753110_a_at) / Fold change /veh SNX32 (11753110_a_at) / RFU CDHR5 (11726645_a_at) / Fold change /veh CDHR5 (11726645_a_at) / RFU RCAN1 (11760418_a_at) / Fold change /veh RCAN1 (11760418_a_at) / RFU FAM167A (11723789_a_at) / Fold change /veh FAM167A (11723789_a_at) / RFU FAM26E (11764081_at) / Fold change /veh FAM26E (11764081_at) / RFU ISYNA1 (11749810_s_at) / Fold change /veh ISYNA1 (11749810_s_at) / RFU ACY1 (11761880_at) / Fold change /veh ACY1 (11761880_at) / RFU 11764098_at / Fold change /veh 11764098_at / RFU SAMD14 (11745864_x_at) / Fold change /veh SAMD14 (11745864_x_at) / RFU NPB (11741838_a_at) / Fold change /veh NPB (11741838_a_at) / RFU TMPRSS6 (11731388_a_at) / Fold change /veh TMPRSS6 (11731388_a_at) / RFU KRTAP10-2 (11738614_at) / Fold change /veh KRTAP10-2 (11738614_at) / RFU ARHGAP8 /// PRR5-ARHGAP8 (11727945_x_at) / Fold change /veh ARHGAP8 /// PRR5-ARHGAP8 (11727945_x_at) / RFU KRTAP5-7 /// NADSYN1 (11734609_at) / Fold change /veh KRTAP5-7 /// NADSYN1 (11734609_at) / RFU RASL12 (11751679_a_at) / Fold change /veh RASL12 (11751679_a_at) / RFU CDKN2B (11736163_a_at) / Fold change /veh CDKN2B (11736163_a_at) / RFU PRF1 (11729649_at) / Fold change /veh PRF1 (11729649_at) / RFU, ZNF638 /// ZNF638-IT1 / Fold change vs veh, ZNF638 /// ZNF638-IT1 / RFU, PANK3 / Fold change vs veh, PANK3 / RFU, SH3YL1 / Fold change vs veh, SH3YL1 / RFU, ZEB2 / Fold change vs veh, ZEB2 / RFU, NRIP1 / Fold change vs veh, NRIP1 / RFU, PTTG1IP / Fold change vs veh, PTTG1IP / RFU, CAPN2 / Fold change vs veh, CAPN2 / RFU, MED14 / Fold change vs veh, MED14 / RFU, SNORA58 / Fold change vs veh, SNORA58 / RFU, C1orf63 / Fold change vs veh, C1orf63 / RFU, LRRFIP1 / Fold change vs veh, LRRFIP1 / RFU, NDUFAF7 / Fold change vs veh, NDUFAF7 / RFU, SLC12A2 / Fold change vs veh, SLC12A2 / RFU, IBTK / Fold change vs veh, IBTK / RFU, ESF1 / Fold change vs veh, ESF1 / Fold change vs veh, TMEM50B / RFU, TAOK1 / Fold change vs veh, TAOK1 / RFU, ACBD3 / Fold change vs veh, ACBD3 / RFU, TMA16 / Fold change vs veh, TMA16 / RFU, RWDD3 / Fold change vs veh, RWDD3 / RFU, BCAT1 / Fold change vs veh, BCAT1 / RFU, EDEM3 / Fold change vs veh, EDEM3 / RFU, TMEM33 / Fold change vs veh, TMEM33 / RFU, WDR75 / Fold change vs veh, WDR75 / RFU, AHCTF1 / Fold change vs veh, AHCTF1 / RFU, TFRC / Fold change vs veh, TFRC / RFU, ZDHHC17 / Fold change vs veh, ZDHHC17 / RFU, NOM1 / Fold change vs veh, NOM1 / RFU, ARL8B / Fold change vs veh, ARL8B / RFU, ZBTB11 / Fold change vs veh, ZBTB11 / RFU, TAMM41 / Fold change vs veh, TAMM41 / RFU, KIAA1704 /// LOC100996395 / Fold change vs veh, KIAA1704 /// LOC100996395 / RFU, ING1 / Fold change vs veh, ING1 / RFU, TRMT61B / Fold change vs veh, TRMT61B / RFU, FUBP3 / Fold change vs veh, FUBP3 / RFU, TP53 / Fold change vs veh, TP53 / RFU, TNKS2 / Fold change vs veh, TNKS2 / RFU, ZFP14 / Fold change vs veh, ZFP14 / RFU, ACTR2 / Fold change vs veh, ACTR2 / RFU, PPP3R1 / Fold change vs veh, PPP3R1 / RFU, PIK3R1 / Fold change vs veh, PIK3R1 / RFU, HNRNPA1 / Fold change vs veh, HNRNPA1 / RFU, RNF170 / Fold change vs veh, RNF170 / RFU, ZNF28 / Fold change vs veh, ZNF28 / RFU, RNGTT / Fold change vs veh, RNGTT / RFU, OGT / Fold change vs veh, OGT / RFU, BRD1 / Fold change vs veh, BRD1 / RFU, MARS / Fold change vs veh, MARS / RFU, ZNF655 / Fold change vs veh, ZNF655 / RFU, FAHD1 / Fold change vs veh, FAHD1 / RFU, BDP1 / Fold change vs veh, BDP1 / RFU, LRRCC1 / Fold change vs veh, LRRCC1 / RFU, ARID1A / Fold change vs veh, ARID1A / RFU, ZNF146 / Fold change vs veh, ZNF146 / RFU, ZNF330 / Fold change vs veh, ZNF330 / RFU, GPN3 / Fold change vs veh, GPN3 / RFU, C9orf123 / Fold change vs veh, C9orf123 / RFU, N4BP2L2 / Fold change vs veh, N4BP2L2 / RFU, ARFIP1 / Fold change vs veh, ARFIP1 / RFU, FAM179B / Fold change vs veh, FAM179B / RFU, BCL10 / Fold change vs veh, BCL10 / RFU, UHRF1BP1L / Fold change vs veh, UHRF1BP1L / RFU, BET1 / Fold change vs veh, BET1 / RFU, CNOT2 / Fold change vs veh, CNOT2 / RFU, ZNF268 / Fold change vs veh, ZNF268 / Fold change vs veh, ZNF507 / RFU, DGCR2 / Fold change vs veh, DGCR2 / RFU, WDSUB1 / Fold change vs veh, WDSUB1 / Fold change vs veh, HSP90B1 /// MIR3652 / RFU, ADSS / Fold change vs veh, ADSS / RFU, GK / Fold change vs veh, GK / RFU, ZNF148 / Fold change vs veh, ZNF148 / RFU, TAF9 / Fold change vs veh, TAF9 / RFU, SLC1A5 / Fold change vs veh, SLC1A5 / RFU, SLMO2 / Fold change vs veh, SLMO2 / RFU, ABCC4 / Fold change vs veh, ABCC4 / RFU, LOC101060439 /// RAP1B / Fold change vs veh, LOC101060439 /// RAP1B / RFU, RFX7 / Fold change vs veh, RFX7 / RFU, GTPBP10 / Fold change vs veh, GTPBP10 / RFU, CNEP1R1 / Fold change vs veh, CNEP1R1 / RFU, BIVM-ERCC5 /// ERCC5 / Fold change vs veh, BIVM-ERCC5 /// ERCC5 / RFU, ILF3 / Fold change vs veh, ILF3 / RFU 11762660_at / Fold change /veh 11762660_at / RFU VCAN (11757783_s_at) / Fold change /veh VCAN (11757783_s_at) / RFU DDX43 (11728927_at) / Fold change /veh DDX43 (11728927_at) / RFU KRT8 (11758188_x_at) / Fold change /veh KRT8 (11758188_x_at) / RFU NKD1 (11759106_at) / Fold change /veh NKD1 (11759106_at) / RFU SRD5A1 (11742802_a_at) / Fold change /veh SRD5A1 (11742802_a_at) / RFU TPSAB1 /// TPSB2 (11721975_s_at) / Fold change /veh TPSAB1 /// TPSB2 (11721975_s_at) / RFU GSTM3 (11746129_a_at) / Fold change /veh GSTM3 (11746129_a_at) / RFU IL23R (11737362_x_at) / Fold change /veh IL23R (11737362_x_at) / RFU TMEM51 (11727254_a_at) / Fold change /veh TMEM51 (11727254_a_at) / RFU PIWIL2 (11732686_x_at) / Fold change /veh PIWIL2 (11732686_x_at) / RFU ORM1 (11744905_x_at) / Fold change /veh ORM1 (11744905_x_at) / RFU CCDC152 (11743942_at) / Fold change /veh CCDC152 (11743942_at) / RFU ECM1 (11717891_a_at) / Fold change /veh ECM1 (11717891_a_at) / RFU IL23R (11748794_a_at) / Fold change /veh IL23R (11748794_a_at) / RFU TNFAIP8L3 (11732012_x_at) / Fold change /veh TNFAIP8L3 (11732012_x_at) / RFU MBOAT4 (11741988_at) / Fold change /veh MBOAT4 (11741988_at) / RFU 11764193_at / Fold change /veh 11764193_at / RFU TMEM53 (11763286_at) / Fold change /veh TMEM53 (11763286_at) / RFU MAGEB2 (11727129_at) / Fold change /veh MAGEB2 (11727129_at) / RFU TMEM200A (11744735_a_at) / Fold change /veh TMEM200A (11744735_a_at) / RFU CCDC152 (11751479_a_at) / Fold change /veh CCDC152 (11751479_a_at) / RFU FAM211A (11726209_a_at) / Fold change /veh FAM211A (11726209_a_at) / RFU RGS16 (11746705_a_at) / Fold change /veh RGS16 (11746705_a_at) / RFU VCAN (11755009_s_at) / Fold change /veh VCAN (11755009_s_at) / RFU RHOB (11743442_s_at) / Fold change /veh RHOB (11743442_s_at) / RFU RGS16 (11720943_a_at) / Fold change /veh RGS16 (11720943_a_at) / RFU RGS16 (11720944_at) / Fold change /veh RGS16 (11720944_at) / RFU, VPS4B / Fold change vs veh, VPS4B / RFU, CREB1 / Fold change vs veh, CREB1 / RFU, DNAJC13 / Fold change vs veh, DNAJC13 / RFU, GNAQ / Fold change vs veh, GNAQ / RFU, CDK5R1 / Fold change vs veh, CDK5R1 / RFU, ZRANB3 / Fold change vs veh, ZRANB3 / RFU, CUL4A / Fold change vs veh, CUL4A / RFU, CCNY / Fold change vs veh, CCNY / RFU, UFL1 / Fold change vs veh, UFL1 / RFU, COG3 / Fold change vs veh, COG3 / RFU, DIAPH2 / Fold change vs veh, DIAPH2 / RFU, SKA2 / Fold change vs veh, SKA2 / RFU, AFF3 / Fold change vs veh, AFF3 / RFU, LMF1 / Fold change vs veh, LMF1 / RFU, IPO11 / Fold change vs veh, IPO11 / RFU, DFFB / Fold change vs veh, DFFB / RFU, FOXP1 / Fold change vs veh, FOXP1 / RFU, CARD8 / Fold change vs veh, CARD8 / RFU, STRN3 / Fold change vs veh, STRN3 / RFU, ADK / Fold change vs veh, ADK / RFU, RASSF2 / Fold change vs veh, RASSF2 / RFU, WIPF1 / Fold change vs veh, WIPF1 / RFU, LARP1B / Fold change vs veh, LARP1B / RFU, RASA1 / Fold change vs veh, RASA1 / RFU, RB1 / Fold change vs veh, RB1 / RFU, PPFIA1 / Fold change vs veh, PPFIA1 / RFU, MAT2A / Fold change vs veh, MAT2A / RFU, CCT5 / Fold change vs veh, CCT5 / RFU, WDR92 / Fold change vs veh, WDR92 / RFU, CUX1 / Fold change vs veh, CUX1 / RFU, TTC7A / Fold change vs veh, TTC7A / RFU, TMEM135 / Fold change vs veh, TMEM135 / RFU, DEPTOR / Fold change vs veh, DEPTOR / RFU, CPM / Fold change vs veh, CPM / RFU, DNAJB6 / Fold change vs veh, DNAJB6 / RFU, CACNA2D3 / Fold change vs veh, CACNA2D3 / RFU, DTX4 / Fold change vs veh, DTX4 / RFU, TFCP2 / Fold change vs veh, TFCP2 / RFU, GMCL1 /// GMCL1P1 / Fold change vs veh, GMCL1 /// GMCL1P1 / RFU, AEBP2 / Fold change vs veh, AEBP2 / RFU, SNHG1 /// SNORD22 /// SNORD25 /// SNORD26 /// SNORD27 /// SNORD28 /// SNORD29 /// SNORD31 / Fold change vs veh, SNHG1 /// SNORD22 /// SNORD25 /// SNORD26 /// SNORD27 /// SNORD28 /// SNORD29 /// SNORD31 / Fold change (Aza/veh), C12orf56 (ProbeSet 11735607_a_at) / Fold change (ACY-1035/veh), C12orf56 (ProbeSet 11735607_a_at) / Fold change (Aza/veh), FGFR1OP (ProbeSet 11751329_s_at) / Fold change (ACY-1035/veh), FGFR1OP (ProbeSet 11751329_s_at) / Fold change (Aza/veh), VPS36 (ProbeSet 11739960_a_at) / Fold change (ACY-1035/veh), VPS36 (ProbeSet 11739960_a_at) / RFU SYPL1 (11715823_x_at) / Fold change /veh SYPL1 (11715823_x_at) / RFU IGFBP7 (11715501_s_at) / Fold change /veh IGFBP7 (11715501_s_at) / RFU REEP3 (11722064_at) / Fold change /veh REEP3 (11722064_at) / RFU IGLL1 (11728026_x_at) / Fold change /veh IGLL1 (11728026_x_at): dose or concentration left out as unconfirmed
Settings: ProbeSet 11725787_a_at; LIST B

Nc1ncn([C@@H]2O[C@H](CO)[C@@H](O)[C@H]2O)c(=O)n1 [azacitidine]
RFU, TMA16: 152.00 RFU
